Legend:
[1] = Ready biodegradability of the sequestering agent; conditions: sequestering agent of the composition: A EDDS, B gluconic acid, C IDS Na, D EDTA
[2] = pH / physical stability on ageing; format: physicochemical; conditions: stable pH and absence of discoloration

Row | Structure (SMILES) | Biodegradability of sequestering agent (ready biodegradability) [1] | pH Physical stability on ageing [2]
1 | O=C(O)C[C@H](NCCN[C@@H](CC(=O)O)C(=O)O)C(=O)O [EDDS, trisodium ethylene diamine-N,N-disuccinate] | biodegradable | imparting product physical stability
2 | O=C(O)CN(CCN(CC(=O)O)CC(=O)O)CC(=O)O [EDTA, ethylene diamine tetraacetate] | non-ready biodegradable | –

From patent publication US6573230B1, “Liquid cleaning composition containing an effective biodegradable chelating agent” (Colgate-Palmolive Company, priority 2002, dated 2003)
